Reference: patent US5523312A, “Antipicornaviral agents” (priority 1994, dated 1996)
≈ marks a conversion by molar mass, not a printed value.

Test system: not listed separately
Test: automated TCID-50 assay, rhinovirus-induced CPE in HeLa cells, panel T
Format: cell-based
Conditions: Human rhinovirus sp., HRV2, 72 h, read-out: MIC50 (minimum concentration of the compound required to inhibit 50% of the tested serotypes)
Procedure: (§1) The MIC values were determined by an automated tissue culture infectious dose 50% (TCID-50) assay. HeLa cells in monoloyers in 96-well cluster plates were infected with a dilution of picornavirus which had been shown empirically to produce 80% to 100% cytopathic effect (CPE) in 3 days in the absence of drug. The compound to be tested was serially diluted through 10, 2-fold cycles and added to the infected cells. After a 3 day incubation at 33° C. and 2.5% carbon dioxide, the cells were fixed with a 5% solution of glutaraldehyde followed by staining with a 0.25% solution of crystal violet in water. The plates were then rinsed, dried, and the amount of stain remaining in the well (a measure of intact cells) was quantitated with an optical density reader. The MIC was determined to be the concentration of compound which protected 50% of the cells from picornavirus-induced CPE relative to an untreated picornavirus control.
(§2) In the above test procedures, representative compounds of formula I were tested against some the serotypes from either a panel of fifteen human rhinovirus (HRV) serotypes, (noted in the table as panel T) namely, HRV-2, -14, -1A, -1B, -6, -21, -22, -15, -25, -30, -50, -67, -89, -86 and -41 or against some of the serotypes from a panel of 10 human rhinovirus serotypes, namely HRV-3, -4, -5, -9, -16, -18, -38, -66, -75 and -67, (noted in the table as panel B) and the MIC value, expressed in micrograms per milliliter […], for each rhinopicornavirus serotype was determined for each picornavirus, example 1e is given as an example of the data. Then MIC50 values, which are the minimum concentrations of the compound required to inhibit 50% of the tested serotypes were determined.
(§3) The following Table gives the test results for representative compounds of the invention. The panel of picornaviruses used in the test appears before the MIC80 and MIC50 figure and the number of serotypes which the compound is tested against (n) is indicated after the MIC80 and MIC50 figure.

Compound | MIC50 [µg/mL]
Cc1cc(CCCCc2cc3cc(-c4noc(C)n4)ccc3o2)on1 [Example 1f] | 19.9 (≈ 59 µM)
Cc1cc(CCCc2cc3cc(-c4noc(C)n4)cc(C)c3o2)on1 [Example 1g] | 6.85 (≈ 20.3 µM)
Cc1cc(CCCCc2cc3cc(-c4noc(C)n4)cc(Cl)c3o2)on1 [Example 1h] | 0.124 (≈ 0.333 µM)
Cc1cc(CCCCc2cc3cc(-c4noc(C(F)(F)F)n4)cc(C)c3o2)on1 [Example 1i] | 37.4 (≈ 92.2 µM)
Cc1cc(CCCCCc2cc3cc(C(=O)O)ccc3o2)on1 [Example 1j] | 51.1 (≈ 163 µM)
Cc1cc(CCCCCc2cc3cc(C4=NCCO4)ccc3o2)on1 [Example 1k] | 0.585 (≈ 1.73 µM)
CCCCn1nnc(-c2cc(C)c3oc(CCCCc4cc(C)no4)cc3c2)n1 [Example 1l] | 49.8 (≈ 127 µM)
Cc1cc(CCCc2cc3cc(-c4nnn(C)n4)cc(C)c3o2)on1 [Example 1m] | 0.192 (≈ 0.569 µM)
Cc1cc(CCc2cc3cc(-c4nnn(C)n4)cc(C)c3o2)on1 [Example 1n] | 33.8 (≈ 105 µM)

Test system: human rhinovirus (HRV) serotypes, panel B (HRV-3, -4, -5, -9, -16, -18, -38, -66, -75 and -67)
Test: automated TCID-50 assay, rhinovirus-induced CPE in HeLa cells, panel B
Format: cell-based
Conditions: Human rhinovirus sp., HRV3, 72 h, read-out: MIC50 (minimum concentration of the compound required to inhibit 50% of the tested serotypes)
Procedure: as §1, §2, §3

Compound | MIC50 [µg/mL]
Cc1cc(CCCn2ccc3cc(-c4noc(C)n4)ccc32)on1 [Example 2c] | 50.9 (≈ 158 µM)
Cc1cc(CCCCn2ccc3cc(-c4noc(C(F)(F)F)n4)cc(C)c32)on1 [Example 2d] | 0.5 (≈ 1.24 µM)
Cc1cc(CCCCCn2ccc3cc(-c4noc(C(F)F)n4)cc(C)c32)on1 [Example 2e] | 3.13 (≈ 7.82 µM)
Cc1cc(CCCCCn2ccc3cc(-c4noc(C(F)(F)F)n4)cc(C)c32)on1 [Example 2f] | 0.307 (≈ 0.734 µM)
Cc1cc(CCCn2ccc3cc(-c4noc(C(F)F)n4)ccc32)on1 [Example 2g] | 69.4 (≈ 194 µM)
Cc1cc(CCCn2ccc3cc(-c4noc(C)n4)cc(C)c32)on1 [Example 2h] | 0.158 (≈ 0.47 µM)
Cc1cc(CCCn2ccc3cc(-c4noc(C(F)(F)F)n4)ccc32)on1 [Example 2i] | 0.549 (≈ 1.46 µM)
